Results: patent publication US6369225B1, “Compounds having activity as inhibitors of cytochrome P450RAI” (Allergan Sales, Inc., priority 2000, dated 2002)

Legend:
P450RAI-1 = target: T1, P450RAI-1 (Homo sapiens, UniProt O43174); experiment: P450RAI-1 cell-based inhibitor assay; details: P450RAI-1 stably transfected HeLa cells, [3H]-RA metabolism, 3 hours at 37° C.; read-out: P450RAI INHIBITION DATA INTACT HELA IC50
T1 construct: expressed in transfected cells; host or cells: HeLa cells, stably transfected, hygromycin selection
T1 sequence (O43174 1-497): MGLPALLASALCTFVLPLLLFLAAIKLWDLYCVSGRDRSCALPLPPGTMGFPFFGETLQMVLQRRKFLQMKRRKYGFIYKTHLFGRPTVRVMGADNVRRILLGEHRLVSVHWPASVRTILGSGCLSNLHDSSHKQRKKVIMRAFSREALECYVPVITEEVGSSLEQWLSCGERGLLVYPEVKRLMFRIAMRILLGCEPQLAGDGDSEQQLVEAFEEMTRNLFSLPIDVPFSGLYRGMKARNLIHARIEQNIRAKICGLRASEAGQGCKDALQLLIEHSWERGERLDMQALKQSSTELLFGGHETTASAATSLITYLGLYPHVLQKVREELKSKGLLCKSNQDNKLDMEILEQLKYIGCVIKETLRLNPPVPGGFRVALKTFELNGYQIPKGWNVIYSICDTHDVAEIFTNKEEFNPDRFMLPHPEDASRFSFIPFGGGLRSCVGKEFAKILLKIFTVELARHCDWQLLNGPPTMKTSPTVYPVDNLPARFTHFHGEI
Protocol: P450RAI-1 stably transfected HeLa cells are maintained in […] tissue culture dishes in Modified Eagle's Medium (MEM) containing 10% Fetal Bovine Serum (FBS) and 100 μg/ml hygromycin. Exponentially growing cells are harvested by incubating in trypsin. Cells are then washed with 1× Phosphate Buffered Saline (PBS) and plated in a 48-well plate at 5×10^5 cells in 0.2 ml MEM medium containing 10% FBS and 0.05 μCi[^3H]-RA in the presence or absence of increasing concentrations of the test compounds. The compounds are diluted in 100% DMSO and then added in triplicate wells at either 10, 1 or 0.1 μM final concentration. As a positive control for RA metabolism inhibition, cells are also incubated with ketoconazole at 100, 10 and 1 μM. Cell are incubated for 3 hours at 37° C. […] The water soluble radioactivity is quantified using a β-scintillation counter. IC50 values represent the concentration of inhibitor required to inhibit all-trans-RA metabolism by 50 percent and are derived manually from log-transformed data.

RARα = target: T2, RARα (Homo sapiens, UniProt P10276); experiment: ligand binding assay, RARα; details: Kd line of EC50/(EFFICACY)/Kd, read-out: RAR Kd α
T2 sequence (P10276 1-462): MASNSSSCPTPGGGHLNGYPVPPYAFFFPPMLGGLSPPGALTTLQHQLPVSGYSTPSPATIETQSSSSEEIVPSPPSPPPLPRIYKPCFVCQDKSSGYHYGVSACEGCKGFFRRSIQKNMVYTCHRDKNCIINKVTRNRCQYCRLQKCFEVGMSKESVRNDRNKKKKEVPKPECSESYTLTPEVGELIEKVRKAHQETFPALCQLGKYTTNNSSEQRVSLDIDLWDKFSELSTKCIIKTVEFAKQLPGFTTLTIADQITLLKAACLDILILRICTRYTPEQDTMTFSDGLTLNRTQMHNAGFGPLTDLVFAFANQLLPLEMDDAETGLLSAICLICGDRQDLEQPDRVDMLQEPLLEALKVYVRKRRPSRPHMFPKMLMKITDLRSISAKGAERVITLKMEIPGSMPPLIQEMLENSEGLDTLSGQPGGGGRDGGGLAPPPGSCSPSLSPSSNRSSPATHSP
Source text: (§1) Assays described below measure the ability of a compound to bind to, and/or activate various retinoid receptor subtypes. When in these assays a compound binds to a given receptor subtype and activates the transcription of a reporter gene through that subtype, then the compound is considered an agonist of that receptor subtype. […] In the below described assays the ability of the compounds to bind to RARα, RARβ, RARγ, RXRα, RXRβ and RXRγ receptors, and the ability or inability of the compounds to activate transcription of a reporter gene through these receptor subtypes can be tested.
(§2) A holoreceptor transactivation assay and a ligand binding assay which measure the antagonist/agonist like activity of the compounds of the invention, or their ability to bind to the several retinoid receptor subtypes, respectively, are described in published PCT Application No. WO WO93/11755 (particularly on pages 30-33 and 37-41) published on Jun. 24, 1993, the specification of which is also incorporated herein by reference. A detailed experimental procedure for holoreceptor transactivations has been described by Heyman et al. Cell 68, 397-406, (1992); Allegretto et al. J. Biol. Chem. 268, 26625-26633, and Mangelsdorf et al. The Retinoids: Biology, Chemistry and Medicine, pp 319-349, Raven Press Ltd., New York, which are expressly incorporated herein by reference. The results obtained in this assay are expressed in EC50 numbers, as they are also in the chimeric receptor transactivation assay. The results of ligand binding assay are expressed in Kd numbers. (See Cheng et al. Biochemical Pharmacology Vol. 22 pp 3099-3108, expressly incorporated herein by reference.)
(§3) The results if the ligand binding assay for several preferred compounds of the invention are included in Table 1.

RARβ = target: T3, RARβ (Homo sapiens, UniProt P10826); experiment: ligand binding assay, RARβ; details: Kd line of EC50/(EFFICACY)/Kd, read-out: RAR Kd β
T3 sequence (P10826 1-455): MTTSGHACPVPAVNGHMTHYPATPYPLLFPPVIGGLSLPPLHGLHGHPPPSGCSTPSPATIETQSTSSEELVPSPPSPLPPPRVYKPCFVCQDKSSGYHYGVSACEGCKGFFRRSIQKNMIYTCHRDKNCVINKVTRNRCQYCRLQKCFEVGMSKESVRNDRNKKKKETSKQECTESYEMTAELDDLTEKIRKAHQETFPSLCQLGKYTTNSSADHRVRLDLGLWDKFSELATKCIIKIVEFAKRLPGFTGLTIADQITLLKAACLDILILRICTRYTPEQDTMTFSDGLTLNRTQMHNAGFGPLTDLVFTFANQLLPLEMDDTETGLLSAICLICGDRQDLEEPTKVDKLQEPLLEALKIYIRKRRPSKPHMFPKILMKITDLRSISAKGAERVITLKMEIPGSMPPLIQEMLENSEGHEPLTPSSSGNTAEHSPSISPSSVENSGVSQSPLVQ
Source text: as §1
as §2, with “A detailed experimental procedure for holoreceptor transactivations has been described by Heyman et al. Cell 68, 397-406, (1992); Allegretto et al. J. Biol. Chem. 268, 26625-26633, and Mangelsdorf et al. The Retinoids: Biology, Chemistry and Medicine, pp 319-349, Raven Press Ltd., New York, which are expressly incorporated herein by reference.” left out

RARγ = target: T4, RARγ (Homo sapiens, UniProt P13631); experiment: ligand binding assay, RARγ; details: Kd line of EC50/(EFFICACY)/Kd, read-out: RAR Kd γ
T4 sequence (P13631 1-454): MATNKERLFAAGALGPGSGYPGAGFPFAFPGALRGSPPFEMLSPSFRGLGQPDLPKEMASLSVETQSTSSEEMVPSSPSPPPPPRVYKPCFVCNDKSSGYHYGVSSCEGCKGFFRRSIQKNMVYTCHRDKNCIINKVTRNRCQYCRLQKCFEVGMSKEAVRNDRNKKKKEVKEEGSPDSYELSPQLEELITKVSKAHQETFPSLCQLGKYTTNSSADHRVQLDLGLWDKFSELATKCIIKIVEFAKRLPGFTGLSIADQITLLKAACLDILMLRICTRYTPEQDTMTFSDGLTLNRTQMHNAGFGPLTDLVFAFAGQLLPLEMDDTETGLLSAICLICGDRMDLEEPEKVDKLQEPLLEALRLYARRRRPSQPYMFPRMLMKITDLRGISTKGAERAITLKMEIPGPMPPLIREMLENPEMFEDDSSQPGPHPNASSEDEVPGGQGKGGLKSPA
Source text: as §1, §2, §3

Row | Structure (SMILES) | IC50 (P450RAI-1) | Kd (RARα) | Kd (RARβ) | Kd (RARγ)
1 | CC1(C)CCC(=O)c2ccc(C(=O)Oc3ccc(CC(=O)O)cc3)cc21 [Compound 20, 8,8-Dimethyl-5-oxo-5,6,7,8-tetrahydro-naphthalene-2-carboxylic Acid-4-(carboxymethyl)phenyl Ester] | > 10000 nM |  |  | 
2 | CC1(C)CN(C2CC2)Cc2ccc(C#Cc3ccc(CC(=O)O)cc3)cc21 [Compound 24, [4-(2-Cyclopropyl-4,4-dimethyl-1,2,3,4-tetrahydro-isoquinoline-6-yl-ethynyl)-phenyl]-acetic Acid] | 3000 nM |  |  | 
3 | CC1(C)CC(C)(C)c2cc(C#Cc3ccc(CC(=O)O)cc3)ccc2O1 [Compound 28, [4-(2,2,4,4-Tetramethyl-chroman-6-yl-ethynyl)phenyl]acetic Acid] | 340 nM | 21000 nM | 4270 nM | > 10000 nM
4 | CC1(C)CC(C)(C)c2cc(C#Cc3ccc(C(=O)O)c(F)c3)ccc2O1 [Compound 30, 2-Fluoro-4-(2,2,4,4-tetramethyl-chroman-6-yl-ethynyl)-benzoic Acid] | 280 nM | 14 nM | 2.2 nM | 84 nM
5 | CC1(C)CC(C)(C)c2cc(C(=O)Oc3ccc(CC(=O)O)cc3)ccc2O1 [Compound 46, 1,2,2,4,4-Tetramethyl-chroman-6-carboxylic Acid 4-(carboxymethyl)phenyl Ester] | 2200 nM |  |  | 
6 | CC1(C)CC2(CC2)Oc2c(C3CC3)cc(C#Cc3ccc(C(=O)O)cc3)cc21 [Compound 52, Benzoic Acid, 4-[(8-cyclopropyl-3,4-dihydro-4,4-dimethylspiro[2H-1-benzopyran-2,1′-cyclopropane]-6-yl)ethynyl]-] | 50 nM |  |  | 
7 | CC1(C)CC2(CC2)Oc2c(C3CC3)cc(C#Cc3ccc(C(=O)O)c(F)c3)cc21 [Compound 54, 4-[(8-Cyclopropyl-3,4-dihydro-4,4-dimethylspiro[2H-1-benzopyran-2,1′-cyclopropane]-6-yl)ethynyl]-2-fluoro-benzoic Acid] | 22 nM |  |  | 
8 | CCc1cc(C#Cc2ccc(CC(=O)O)cc2)cc2c1OC(C)(C)CC2(C)C [Compound 56, [4-(8-Ethyl-2,2,4,4-tetramethyl-chroman-6-yl-ethynyl)phenyl]acetic Acid] | 130 nM |  |  | 
9 | CC1(C)CC2(CC2)Oc2c(C3CC3)cc(C(=O)Oc3cccc(CC(=O)O)c3)cc21 [Compound 60, Spiro[2H-1-benzopyran-2,1′-cyclopropane]-6-carboxylic Acid, 8-cyclopropyl-3,4-dihydro-4,4-dimethyl-, 3-(carboxymethyl)phenyl Ester] | 1600 nM |  |  | 
10 | CC1(C)CCN(C2CC2)c2ccc(C#Cc3ccc(C(=O)O)cc3)cc21 [Compound 62, 4-(1-Cyclopropyl-4,4-dimethyl-1,2,3,4-tetrahydroquinolin-6-yl-ethynyl)-benzoic Acid] | > 10000 nM |  |  | 
11 | CCc1cc(C#Cc2ccc(CC(=O)O)cc2)ccc1C1(OC(C)C)CC1 [Compound 98, {4-[4-(1-Isopropoxycyclopropyl)-3-ethyl-phenylethynyl]-phenyl}-acetic Acid] | 800 nM |  |  | 
12 | O=C(O)c1ccc(C#Cc2ccc(C3(N(Cc4ccccc4)Cc4ccccc4)CC3)cc2)cc1 [Compound 114, 4-[4-(1-Dibenzylamino-cyclopropyl)-phenylethynyl]-benzoic Acid] | > 10000 nM | > 10000 nM |  | > 10000 nM
13 | Cc1cc(C#Cc2ccc(CC(=O)O)cc2)ccc1Cn1ccnc1 [Compound 121, [4-(4-Imidazol-1-yl-methyl-3-methyl-phenylethynyl)-phenyl]-acetic Acid] |  | > 10000 nM |  | > 100000 nM
14 | CCN(Cc1ccc(C#Cc2ccc(C(=O)O)cc2)cc1C(C)C)C1CC1 [Compound 134, 4-{4-[(Cyclopropyl-ethyl-amino)-methyl]-3-isopropyly-phenylethynyl}-benzoic Acid] | 5000 nM |  |  | 
15 | CC1(C)CCC(n2ccnc2)c2ccc(C#Cc3ccc(C(=O)O)cc3)cc21 (centres unmarked) [Compound 139] | 50 nM |  |  | 
16 | COc1c(C(C)(C)C)cc(C#Cc2ccc(CC(=O)O)cc2)cc1C(C)(C)C [Compound 143, [4-(3,5-Di-tert-butyl-4-methoxy-phenylethynyl)-phenyl]-acetic Acid] | 800 nM |  |  | 
17 | COc1c(C(C)(C)C)cc(C#Cc2ccc(CC(=O)O)c(F)c2)cc1C(C)(C)C [Compound 145, [4-(3,5-Di-tert-butyl-4-methoxy-phenylethynyl)-2-fluoro-phenyl]-acetic Acid] | 200 nM |  |  | 
